From patent US20130338222A1, “METHODS FOR C[…] MITES” (SYNGENTA CROP PROTECTION LLC, priority 2010, published 2013) come the findings set out here.

The data set relates to Varroa destructor. The data set can be described thus: Varroa mite contact test on Potter-tower-treated Petri dishes, mortality after 72 h. The data set is classed as in vivo. To be noted: adult V. destructor, 20 mites (4 dishes of 5), assessed after 72 h. The source says: Varroa mites came from bee colonies provided by a beekeeper. The mite population is kept in a dedicated apiary. For screening needs adults are collected on the same day as the beginning of experiment, either in beehive cells containing brood of worker bees or drones, or directly on bees emerging during collection.
Bee nymphs needed to feed adults of Varroa mites during experiments are choosen within the frames from which Varroa is also collected. They are collected at the stage of nymph with white or pink coloured eyes according methology described by Rembold et Kremer (Characterization of postembryonic developmental stages of the female castes of the honey bee, Apis mellifera L. Apidologie 11: 29-38).
3 cm diameter Petri dishes were used as confinement material of Varroa mites during experiments. Covers with wire mesh were put on the top of each Petri dish in order to avoid the mites to run away but also to keep favorable humidity for the bee nymph. […]
After treatment of Petri dishes, five (5) adults of V. destructor collected from the brood were placed in the petri dish. […] Mortality levels are assessed after 72 h (mites which are able to move their legs are considered as alive). […]

Turning to `CCC(C)(C)C(=O)OC1=C(c2ccc(Cl)cc2Cl)C(=O)OC12CCCCC2` [spirodiclofen, 3-(2,4-dichlorophenyl)-2-oxo-1-oxaspiro[4.5]dec-3-en-4-yl 2,2-dimethylbutyrate], the “% mortality of Varroa” value (formulation SC240, concentration 1.25 microlitre) worked out at 100%. As for `Cc1cc(C)c(C2=C(OC(=O)CC(C)(C)C)C3(CCCC3)OC2=O)c(C)c1` [spiromesifen, 3-mesityl-2-oxo-1-oxaspiro[4.4]non-3-en-4-yl 3,3-dimethylbutyrate], the “% mortality of Varroa” value (formulation SC240, concentration 0.8 microlitre) is 100%.
